Calls of active or inactive are those of the source. The calls are words filed in the database; no cut-off is given here.
Key:
Klebsiella pneumoniae = test: Antimicrobial activity against Klebsiella pneumoniae ATCC 700603 assessed as growth inhibition zone by agar diffusion method; format: functional
Escherichia coli = test: Antimicrobial activity against Escherichia coli ATCC 25922 assessed as growth inhibition zone by agar diffusion method; format: functional
Pseudomonas aeruginosa [1] = test: Antimicrobial activity against Pseudomonas aeruginosa ATCC 27853 assessed as growth inhibition zone by agar diffusion method; format: functional
Staphylococcus aureus = test: Antimicrobial activity against Staphylococcus aureus ATCC 43300 assessed as growth inhibition zone by agar diffusion method; format: functional
Bacillus subtilis = test: Antimicrobial activity against Bacillus subtilis ATCC 6633 assessed as growth inhibition zone by agar diffusion method; format: functional
Candida albicans = test: Antimicrobial activity against Candida albicans ATCC 60193 assessed as growth inhibition zone by agar diffusion method; format: functional
Pseudomonas aeruginosa [2] = test: Antibacterial activity against Pseudomonas aeruginosa by CLSI protocol based broth microdilution method; format: functional; details: for MIC: Pseudomonas aeruginosa
Pseudomonas aeruginosa [3] = test: Antibacterial activity against Pseudomonas aeruginosa assessed as effect on bacterial growth at 9.375 microg/ml incubated for 24 hrs by growth curve analysis; format: functional, organism-based; details: dose 9.375 µg/ml
Pseudomonas aeruginosa [4] = test: Inhibition of biofilm formation in Pseudomonas aeruginosa at sub-MIC by crystal violet staining based analysis relative to control; format: functional
Pseudomonas aeruginosa [5] = test: Inhibition of biofilm formation in Pseudomonas aeruginosa assessed as absorbance by measuring OD at 570 nm at sub-MIC by crystal violet staining based analysis (reference value: 0.635 +/- 0.014); format: functional
Pseudomonas aeruginosa [6] = test: Antivirulence activity in Pseudomonas aeruginosa assessed as inhibition of pyocyanin production at sub-MIC by chloroform-HCl extraction method relative to control; format: functional
Pseudomonas aeruginosa [7] = test: Antivirulence activity in Pseudomonas aeruginosa assessed as inhibition of rhamnolipids production at sub-MIC by spectrophotometric method relative to control; format: functional
Pseudomonas aeruginosa [8] = test: Antivirulence activity in Pseudomonas aeruginosa assessed as inhibition of pyocyanin production by measuring OD at […] at sub-MIC by chloroform-HCl extraction method relative to control; format: functional
[9] = molecular target: T1, Transcriptional activator protein LasR (Pseudomonas aeruginosa (strain ATCC 15692 / PAO1 / 1C / PRS 101 / LMG12228), UniProt P25084); test: Inhibition of Pseudomonas aeruginosa LasR in Escherichia coli DH5 transfected with lacZ reporter and JN105 production plasmid incubated for 4 hrs by beta-galactosidase reporter based miller test
T1 sequence (P25084 whole entry): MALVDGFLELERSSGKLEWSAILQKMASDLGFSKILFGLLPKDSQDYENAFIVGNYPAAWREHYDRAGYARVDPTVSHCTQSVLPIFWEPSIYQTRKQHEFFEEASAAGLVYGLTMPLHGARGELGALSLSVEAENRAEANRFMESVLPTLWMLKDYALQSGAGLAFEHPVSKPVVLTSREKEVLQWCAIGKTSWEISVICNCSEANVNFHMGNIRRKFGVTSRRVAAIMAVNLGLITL

Pseudomonas aeruginosa [10] = test: Antibacterial activity against Pseudomonas aeruginosa assessed as effect on bacterial growth at 18.75 microg/ml incubated for 24 hrs by growth curve analysis; format: functional, organism-based; details: dose 18.75 µg/ml

Compound	inhibition zone (IZ) (Klebsiella pneumoniae) [mm]	inhibition zone (IZ) (Escherichia coli) [mm]	inhibition zone (IZ) (Pseudomonas aeruginosa [1]) [mm]	inhibition zone (IZ) (Staphylococcus aureus) [mm]	inhibition zone (IZ) (Bacillus subtilis) [mm]	inhibition zone (IZ) (Candida albicans) [mm]	SubMIC (Pseudomonas aeruginosa [2]) [µg/mL]	MIC (Pseudomonas aeruginosa [2])	Activity (Pseudomonas aeruginosa [3])	inhibition (INH) (Pseudomonas aeruginosa [4]) [%]	OD (Pseudomonas aeruginosa [5])	inhibition (INH) (Pseudomonas aeruginosa [6]) [%]	inhibition (INH) (Pseudomonas aeruginosa [7]) [%]	OD (Pseudomonas aeruginosa [8])	IC50 [9] [µM]	Activity (Pseudomonas aeruginosa [10])
N#C/C(=C\c1ccc(N2CCCCC2)cc1)c1nc2ccccc2s1	24	25	23	24	21	25	9.375	18.8 µg/mL	inactive	52.3	0.303	43.6	34.9	0.251		
Fc1ccc(-c2ccnc3c(-c4nc5ccccc5s4)cnn23)cc1	26	21	25	24	25	30	9.375	18.8 µg/mL	inactive	69.4	0.194	69.4	54.3	0.136	1.1	
N#C/C(=C\c1ccc(N2CCCC2)cc1)c1nc2ccccc2s1	26	24	25	27	22	28	9.375	18.8 µg/mL	inactive	63.9	0.229	64.9	51	0.156	1.55	
Clc1ccc(-c2ccnc3c(-c4nc5ccccc5s4)cnn23)cc1	25	20	23	25	21	26	9.375	18.8 µg/mL	inactive	54.8	0.287	53.9	42.5	0.205		
N#C/C(=C\c1ccc(N2CCOCC2)cc1)c1nc2ccccc2s1	20	24	21	23	19	24	18.75	37.5 µg/mL		39.7	0.383	35.1	24.3	0.289		inactive
Brc1ccc(-c2ccnc3c(-c4nc5ccccc5s4)cnn23)cc1	17	18	19	19	16	20	18.75	37.5 µg/mL		20	0.508	15.5	9.5	0.376		inactive
Cc1nc2c(-c3nc4ccccc4s3)cnn2c(C)c1Cl	22	21	21	19	21	22	18.75	37.5 µg/mL		36.1	0.406	31.5	21.2	0.305		inactive
c1ccc(-c2ccnc3c(-c4nc5ccccc5s4)cnn23)cc1	21	19	20	20	17	21	18.75	37.5 µg/mL		25.7	0.472	22.2	13.3	0.346		inactive
OC(Cn1cncn1)(Cn1cncn1)c1ccc(F)cc1F [FLUCONAZOLE]						30										
CC1CCN(c2ccc(/C=C(\C#N)c3nc4ccccc4s3)cc2)CC1	27	22	22	22	20	24	9.375	18.8 µg/mL	inactive	50.1	0.317	40.7	30.9	0.264		
COc1ccc(-c2ccnc3c(-c4nc5ccccc5s4)cnn23)cc1	19	22	22	17	19	23	9.375	18.8 µg/mL	inactive	46.1	0.342	39.8	28.6	0.268		
Cc1ccc(-c2ccnc3c(-c4nc5ccccc5s4)cnn23)cc1	26	22	24	26	20	28	9.375	18.8 µg/mL	inactive	59.1	0.26	59.6	45.3	0.18		
C[C@@H](O)[C@H]1C(=O)N2C(C(=O)O)=C(SCCNC=N)C[C@H]12 [IMIPENEM ANHYDROUS]	18	22	12	24	20			93.9 µM								

From ChEMBL document CHEMBL6127070, “Design, synthesis, and molecular dynamic simulations of some novel benzo[d]thiazoles with anti-virulence activity against Pseudomonas aeruginosa” (Eur J Med Chem, 2024)
